Data: ChEMBL document CHEMBL5653631, “A Potent and Selective ULK1 Inhibitor Suppresses Autophagy and Sensitizes Cancer Cells to Nutrient Stress” (iScience, 2018)

Experiments:
[1] = molecular target: Serine/threonine-protein kinase Nek6 (Homo sapiens) (UniProt Q9HC98); test: Inhibition of human recombinant NEK6 at 500 nM in presence of ATP by radiometric assay relative to control
[2] = molecular target: T1, Serine/threonine-protein kinase TAO3 (Homo sapiens) (UniProt Q9H2K8); test: Inhibition of human recombinant TAO3 at 500 nM in presence of ATP by radiometric assay relative to control
T1 sequence (whole entry): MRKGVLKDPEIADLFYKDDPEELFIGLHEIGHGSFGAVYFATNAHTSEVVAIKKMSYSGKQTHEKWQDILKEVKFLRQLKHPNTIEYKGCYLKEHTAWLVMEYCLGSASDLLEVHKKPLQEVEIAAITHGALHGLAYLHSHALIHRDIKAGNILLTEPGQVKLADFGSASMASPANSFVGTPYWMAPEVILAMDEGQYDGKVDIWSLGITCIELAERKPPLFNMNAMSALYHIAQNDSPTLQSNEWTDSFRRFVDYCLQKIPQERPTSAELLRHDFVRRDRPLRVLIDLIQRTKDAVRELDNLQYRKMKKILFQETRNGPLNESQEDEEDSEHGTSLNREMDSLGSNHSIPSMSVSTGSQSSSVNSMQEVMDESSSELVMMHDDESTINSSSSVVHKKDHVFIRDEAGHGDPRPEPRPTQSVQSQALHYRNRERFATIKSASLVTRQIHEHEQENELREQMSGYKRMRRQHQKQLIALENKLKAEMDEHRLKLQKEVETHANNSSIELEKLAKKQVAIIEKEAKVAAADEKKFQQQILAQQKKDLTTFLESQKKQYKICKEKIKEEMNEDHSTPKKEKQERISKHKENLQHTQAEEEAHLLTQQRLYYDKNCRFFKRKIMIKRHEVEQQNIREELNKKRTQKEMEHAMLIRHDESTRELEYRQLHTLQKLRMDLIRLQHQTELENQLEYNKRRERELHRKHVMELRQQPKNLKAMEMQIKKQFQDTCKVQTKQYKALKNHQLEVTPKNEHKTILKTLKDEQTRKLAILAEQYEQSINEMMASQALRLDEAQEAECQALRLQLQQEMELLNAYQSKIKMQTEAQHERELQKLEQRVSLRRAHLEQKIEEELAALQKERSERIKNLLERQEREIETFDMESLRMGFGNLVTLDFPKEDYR

[3] = molecular target: Fibroblast growth factor receptor 3 (Homo sapiens) (UniProt P22607); test: Inhibition of human recombinant FGFR3 at 500 nM related to control ULK1
[4] = molecular target: T2, Interleukin-1 receptor-associated kinase 4 (Homo sapiens) (UniProt Q9NWZ3); test: Inhibition of human recombinant IRAK4 at 500 nM related to control ULK1
T2 sequence (whole entry): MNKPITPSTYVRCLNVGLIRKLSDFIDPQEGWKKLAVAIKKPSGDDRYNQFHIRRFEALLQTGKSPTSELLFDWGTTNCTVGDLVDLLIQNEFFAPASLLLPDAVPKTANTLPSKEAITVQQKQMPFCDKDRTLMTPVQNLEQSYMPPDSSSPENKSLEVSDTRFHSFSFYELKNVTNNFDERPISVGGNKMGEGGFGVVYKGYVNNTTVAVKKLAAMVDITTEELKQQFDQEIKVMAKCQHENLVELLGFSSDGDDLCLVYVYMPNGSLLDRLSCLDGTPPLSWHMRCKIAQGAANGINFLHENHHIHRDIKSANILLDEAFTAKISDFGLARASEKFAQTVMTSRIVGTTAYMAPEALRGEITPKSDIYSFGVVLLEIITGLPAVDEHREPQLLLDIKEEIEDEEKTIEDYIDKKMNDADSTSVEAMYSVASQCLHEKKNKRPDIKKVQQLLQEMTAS

[5] = molecular target: Serine/threonine-protein kinase Nek4 (Homo sapiens) (UniProt P51957); test: Inhibition of human recombinant NEK4 at 500 nM related to control ULK1
[6] = molecular target: Epithelial discoidin domain-containing receptor 1 (Homo sapiens) (UniProt Q08345); test: Inhibition of human recombinant DDR1 at 15 nM in presence of ATP by radiometric assay relative to control
[7] = molecular target: Dual specificity tyrosine-phosphorylation-regulated kinase 1A (Homo sapiens) (UniProt Q13627); test: Inhibition of human recombinant DYRK1A at 15 nM related to control ULK1
[8] = molecular target: Eukaryotic translation initiation factor 2-alpha kinase 1 (Homo sapiens) (UniProt Q9BQI3); test: Inhibition of human recombinant HRI at 15 nM related to control ULK1
[9] = molecular target: T3, Inhibitor of nuclear factor kappa-B kinase subunit epsilon (Homo sapiens) (UniProt Q14164); test: Inhibition of human recombinant IKKe at 40 nM in presence of ATP by radiometric assay relative to control
T3 sequence (whole entry): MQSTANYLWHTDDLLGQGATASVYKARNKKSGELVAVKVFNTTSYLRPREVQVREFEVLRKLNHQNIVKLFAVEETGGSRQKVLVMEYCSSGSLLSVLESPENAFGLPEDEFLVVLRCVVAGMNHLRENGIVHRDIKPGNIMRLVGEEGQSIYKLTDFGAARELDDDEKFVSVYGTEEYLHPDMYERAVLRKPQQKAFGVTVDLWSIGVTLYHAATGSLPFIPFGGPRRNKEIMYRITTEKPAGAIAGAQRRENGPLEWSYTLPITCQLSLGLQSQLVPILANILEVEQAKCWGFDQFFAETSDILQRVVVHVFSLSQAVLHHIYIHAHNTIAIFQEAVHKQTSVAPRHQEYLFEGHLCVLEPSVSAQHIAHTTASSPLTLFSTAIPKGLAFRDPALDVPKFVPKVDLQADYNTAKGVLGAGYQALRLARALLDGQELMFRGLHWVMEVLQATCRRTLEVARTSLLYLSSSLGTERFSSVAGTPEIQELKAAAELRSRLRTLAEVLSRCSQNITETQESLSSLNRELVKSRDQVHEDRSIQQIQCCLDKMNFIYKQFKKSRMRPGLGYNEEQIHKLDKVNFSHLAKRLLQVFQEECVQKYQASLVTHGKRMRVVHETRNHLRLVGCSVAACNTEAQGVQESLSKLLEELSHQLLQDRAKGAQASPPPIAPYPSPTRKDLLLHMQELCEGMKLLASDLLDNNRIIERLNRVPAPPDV

[10] = molecular target: Cyclin-dependent kinase 1 (Homo sapiens) (UniProt P06493); test: Inhibition of human recombinant CDC2 at 40 nM related to control ULK1
Chain of Cyclin-dependent kinase 1 (Homo sapiens) (P06493 whole entry, looked up): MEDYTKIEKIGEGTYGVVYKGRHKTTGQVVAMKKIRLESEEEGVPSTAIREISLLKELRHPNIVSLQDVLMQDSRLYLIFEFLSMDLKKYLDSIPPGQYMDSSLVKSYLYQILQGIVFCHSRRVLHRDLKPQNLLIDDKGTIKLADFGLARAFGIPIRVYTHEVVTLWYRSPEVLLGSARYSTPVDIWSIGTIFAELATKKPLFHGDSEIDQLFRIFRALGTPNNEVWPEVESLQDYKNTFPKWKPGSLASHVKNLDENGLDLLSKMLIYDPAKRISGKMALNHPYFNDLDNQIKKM

Chain of Serine/threonine-protein kinase Nek6 (Homo sapiens) (Q9HC98 whole entry): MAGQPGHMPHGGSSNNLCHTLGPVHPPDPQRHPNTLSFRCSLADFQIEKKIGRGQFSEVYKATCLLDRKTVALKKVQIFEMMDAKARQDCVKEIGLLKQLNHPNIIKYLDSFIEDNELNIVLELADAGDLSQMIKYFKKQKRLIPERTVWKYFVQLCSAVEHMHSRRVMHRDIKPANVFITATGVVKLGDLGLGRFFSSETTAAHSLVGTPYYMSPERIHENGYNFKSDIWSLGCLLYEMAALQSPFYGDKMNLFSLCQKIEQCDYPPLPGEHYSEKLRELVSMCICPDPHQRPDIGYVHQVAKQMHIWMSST
Chain of Fibroblast growth factor receptor 3 (Homo sapiens) (P22607 23-806 limits assumed): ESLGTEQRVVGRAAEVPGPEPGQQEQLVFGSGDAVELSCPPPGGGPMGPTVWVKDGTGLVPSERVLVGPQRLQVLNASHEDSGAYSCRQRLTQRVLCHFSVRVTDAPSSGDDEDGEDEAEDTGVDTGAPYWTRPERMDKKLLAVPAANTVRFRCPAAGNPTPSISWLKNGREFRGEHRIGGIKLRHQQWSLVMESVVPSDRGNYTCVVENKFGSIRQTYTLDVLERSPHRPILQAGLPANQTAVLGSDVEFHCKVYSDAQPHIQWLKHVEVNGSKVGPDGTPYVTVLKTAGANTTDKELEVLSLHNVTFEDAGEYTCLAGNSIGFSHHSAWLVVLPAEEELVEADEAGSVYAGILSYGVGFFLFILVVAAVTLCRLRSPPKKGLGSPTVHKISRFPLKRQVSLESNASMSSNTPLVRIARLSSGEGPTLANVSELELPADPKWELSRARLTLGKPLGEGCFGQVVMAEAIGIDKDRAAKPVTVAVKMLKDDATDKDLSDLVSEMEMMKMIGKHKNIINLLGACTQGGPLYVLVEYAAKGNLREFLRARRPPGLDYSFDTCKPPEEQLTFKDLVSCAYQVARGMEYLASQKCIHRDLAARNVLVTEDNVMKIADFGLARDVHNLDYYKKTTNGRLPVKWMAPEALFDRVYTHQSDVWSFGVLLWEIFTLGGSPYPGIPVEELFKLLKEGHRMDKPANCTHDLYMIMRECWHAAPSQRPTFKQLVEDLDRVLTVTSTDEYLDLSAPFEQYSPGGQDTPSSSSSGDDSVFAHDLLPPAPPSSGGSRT
Chain of Epithelial discoidin domain-containing receptor 1 (Homo sapiens) (Q08345 whole entry, the tested form may be a part): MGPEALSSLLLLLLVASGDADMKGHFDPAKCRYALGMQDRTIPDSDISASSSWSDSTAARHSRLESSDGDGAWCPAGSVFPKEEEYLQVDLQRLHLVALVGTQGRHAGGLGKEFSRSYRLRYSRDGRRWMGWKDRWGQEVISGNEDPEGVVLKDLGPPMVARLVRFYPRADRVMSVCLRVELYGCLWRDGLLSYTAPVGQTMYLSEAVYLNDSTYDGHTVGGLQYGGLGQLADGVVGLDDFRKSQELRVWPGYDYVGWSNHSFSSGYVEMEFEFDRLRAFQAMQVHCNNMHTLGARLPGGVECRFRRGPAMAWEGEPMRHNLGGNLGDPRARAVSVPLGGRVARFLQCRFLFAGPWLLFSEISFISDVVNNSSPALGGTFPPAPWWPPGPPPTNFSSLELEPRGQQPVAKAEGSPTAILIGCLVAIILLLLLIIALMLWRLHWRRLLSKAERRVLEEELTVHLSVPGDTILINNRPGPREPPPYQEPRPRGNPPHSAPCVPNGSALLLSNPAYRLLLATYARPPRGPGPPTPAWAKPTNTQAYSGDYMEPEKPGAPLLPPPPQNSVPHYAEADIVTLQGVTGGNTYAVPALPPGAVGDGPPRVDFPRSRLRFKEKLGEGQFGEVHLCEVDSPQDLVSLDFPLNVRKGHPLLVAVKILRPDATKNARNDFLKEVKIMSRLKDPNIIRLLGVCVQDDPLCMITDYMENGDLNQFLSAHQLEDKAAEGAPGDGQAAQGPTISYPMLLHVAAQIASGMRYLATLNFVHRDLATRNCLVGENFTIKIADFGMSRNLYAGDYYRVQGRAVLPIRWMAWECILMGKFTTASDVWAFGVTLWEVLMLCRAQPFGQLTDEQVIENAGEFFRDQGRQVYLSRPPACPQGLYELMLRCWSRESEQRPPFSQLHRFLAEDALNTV
Chain of Eukaryotic translation initiation factor 2-alpha kinase 1 (Homo sapiens) (Q9BQI3 whole entry): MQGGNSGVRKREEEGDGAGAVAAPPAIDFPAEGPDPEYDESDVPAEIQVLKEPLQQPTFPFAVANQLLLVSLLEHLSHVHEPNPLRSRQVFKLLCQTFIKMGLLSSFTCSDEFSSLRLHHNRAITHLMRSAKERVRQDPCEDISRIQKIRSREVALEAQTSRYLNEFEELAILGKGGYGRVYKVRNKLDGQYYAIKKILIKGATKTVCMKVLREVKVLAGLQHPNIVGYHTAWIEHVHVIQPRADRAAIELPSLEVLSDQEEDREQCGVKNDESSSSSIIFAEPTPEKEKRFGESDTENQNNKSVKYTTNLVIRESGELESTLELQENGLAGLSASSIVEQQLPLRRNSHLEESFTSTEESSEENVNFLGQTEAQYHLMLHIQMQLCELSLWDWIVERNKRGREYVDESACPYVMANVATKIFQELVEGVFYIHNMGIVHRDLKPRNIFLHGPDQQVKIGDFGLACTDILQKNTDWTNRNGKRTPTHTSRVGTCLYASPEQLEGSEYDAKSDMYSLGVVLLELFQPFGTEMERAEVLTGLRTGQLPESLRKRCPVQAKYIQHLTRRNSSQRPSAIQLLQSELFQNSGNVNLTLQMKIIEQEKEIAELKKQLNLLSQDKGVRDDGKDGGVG
Chain of Serine/threonine-protein kinase Nek4 (Homo sapiens) (P51957 whole entry, looked up, the tested form may be a part): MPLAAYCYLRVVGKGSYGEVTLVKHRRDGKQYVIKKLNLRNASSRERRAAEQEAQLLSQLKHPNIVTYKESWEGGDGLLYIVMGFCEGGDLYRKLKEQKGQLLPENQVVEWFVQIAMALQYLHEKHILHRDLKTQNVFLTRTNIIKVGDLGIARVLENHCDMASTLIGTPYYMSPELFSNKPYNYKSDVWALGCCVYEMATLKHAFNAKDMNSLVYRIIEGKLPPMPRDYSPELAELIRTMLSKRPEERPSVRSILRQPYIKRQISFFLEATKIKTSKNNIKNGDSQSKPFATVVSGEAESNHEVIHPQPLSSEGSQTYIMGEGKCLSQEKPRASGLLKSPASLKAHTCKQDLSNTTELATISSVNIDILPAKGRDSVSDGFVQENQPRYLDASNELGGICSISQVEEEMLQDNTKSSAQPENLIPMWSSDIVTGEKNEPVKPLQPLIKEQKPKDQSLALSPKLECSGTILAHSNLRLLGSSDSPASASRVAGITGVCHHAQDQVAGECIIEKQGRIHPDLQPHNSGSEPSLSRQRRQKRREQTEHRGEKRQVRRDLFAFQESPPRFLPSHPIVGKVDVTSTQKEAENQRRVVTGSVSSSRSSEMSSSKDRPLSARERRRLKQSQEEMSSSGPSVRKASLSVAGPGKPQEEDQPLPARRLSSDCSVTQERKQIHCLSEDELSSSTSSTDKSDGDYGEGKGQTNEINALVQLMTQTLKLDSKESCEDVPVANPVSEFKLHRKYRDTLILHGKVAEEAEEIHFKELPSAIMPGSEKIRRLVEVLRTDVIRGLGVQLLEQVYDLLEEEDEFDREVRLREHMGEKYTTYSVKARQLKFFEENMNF

Structure (SMILES): CNC(=O)c1ccccc1Oc1nc(Nc2cc(OC)c(OC)c(OC)c2)ncc1Br
- inhibition [1]: 0%
- inhibition [2]: 0%
- fold change (FC) [3]: 0.57
- fold change (FC) [4]: 0.08
- fold change (FC) [5]: 0.31

Structure (SMILES): CC(C)[C@H](NC(=O)c1cc(-c2cnn3cc(-c4ccc(OCCN5CCCCC5)cc4)cnc23)cs1)C(F)(F)F
- inhibition [6]: 78%
- fold change (FC) [7]: 0.83
- fold change (FC) [8]: 0

Structure (SMILES): O=C(N[C@@H](C1CC1)C(F)(F)F)c1cc(-c2cnn3cc(-c4ccc(F)cc4)cnc23)cs1
- inhibition [9]: 30%
- fold change (FC) [10]: 0.62
